According to patent US7468375B2 (Pfizer Inc., priority 2004, dated 2008):
pEC50, pIC50: −log10 of the molar value. Read-outs that look alike come from different tables or passages of the source.

How the values were obtained:
[1] = system: RF strain of HIV-1 in CEM-SS cells; assay: HIV-1 cell protection assay (XTT dye reduction); format: cell-based
Method: HIV-1 Cell Protection Assay
The antiviral activities of potential modulator compounds (test compounds) were determined in HIV-1 cell protection assays using the RF strain of HIV-1, CEM-SS cells, and the XTT dye reduction method (Weislow, O. S. et al., J. Natl. Cancer Inst. 81: 577-586 (1989)). Subject cells were infected with HIV-1 RF virus at an moi of 0.025 to 0.819 or mock infected with medium only and added at 2×10^4 cells per well into 96 well plates containing half-log dilutions of test compounds. Six days later, 50 μl of XTT solution (1 mg/ml XTT tetrazolium and […] phenazine methosulfate) were added to the wells and the plates were reincubated for four hours. Viability, as determined by the amount of XTT formazan produced, was quantified spectrophotometrically by absorbance at 450 nm. Data from CPE assays were expressed as the percent of formazan produced in compound-treated cells compared to formazan produced in wells of uninfected, compound-free cells. […] The therapeutic index was calculated by dividing the cytotoxicity (CC50) by the antiviral activity (EC50).

[2] = biological target: T1, Full-length wild type HIV-1 integrase (SF1) (Human immunodeficiency virus type 1 group M subtype B, UniProt P04585); assay: Integrase strand-transfer scintillation proximity assay; format: biochemical; details: strand transfer, 50 min at 37° C., 246 nM integrase, 50 nM host DNA; read-out: IC50
T1 construct: made in house; host or cells: E. coli BL21 (DE3)
Text: Integrase Strand-Transfer Scintillation Proximity Assay Oligonucleotides
Oligonucleotide #1-5′-(biotin)[…]-3′ (SEQ ID NO: 1) and oligonucleotide #2-5′-[…]-3′ (SEQ ID NO: 2), were synthesized by TriLink BioTechnologies, Inc. (San Diego, Calif.). The annealed product represents preprocessed viral ds-DNA derived from the LTR U5 sequence of the viral genome. A ds-DNA control to test for non-specific interactions was made using a 3′ di-deoxy derivative of oligonucleotide #1 annealed to oligonucleotide #2. The CA overhang at the 5′ end of the non-biotinylated strand of the ds-DNA was created artificially by using a complimentary DNA oligonucleotide shortened by 2 base pairs. This configuration eliminates the requisite 3′ processing step of the integrase enzyme prior to the strand-transfer mechanism. Host ds-DNA was prepared as an unlabeled and [^3H]-thymidine labeled product from annealed oligonucleotide #3-5-[…]-3′ (SEQ ID NO: 3), and oligonucleotide #4-5′-[…]-3′ (SEQ ID NO: 4), both synthesized by TriLink BioTechnologies, Inc. (San Diego, Calif.). The annealed product had overhanging 3′ ends of poly(dA). Host DNA was custom radiolabeled by PerkinElmer Life Sciences Inc. (Boston, Mass.) using an enzymatic method with a 12/1 ratio of [methyl-3H]dTTP/cold ds-DNA to yield 5′-blunt end ds-DNA with a specific activity of >900 Ci/mmol. The radiolabeled product was purified using a NENSORB cartridge and stored in stabilized aqueous solution (PerkinElmer). The final radiolabeled product had six [^3H]-thymidine nucleotides at both 5′ ends of the host ds-DNA. Reagents: Streptavidin-coated polyvinyltoluene (PVT) SPA beads were purchased from Amersham Biosciences (Piscataway, N.J.). Cesium chloride was purchased from Shelton Scientific, Inc. (Shelton, Conn.). White, polystyrene, flat-bottom, non-binding surface, 96-well plates were purchased from Corning. All other buffer components were purchased from Sigma (St. Louis, Mo.) unless otherwise indicated.
Enzyme Construction: Full-length wild type HIV-1 integrase (SF1) sequence (amino acids 1-288) was constructed in a pET24a vector (Novagen, Madison, Wis.). The construct was confirmed through DNA sequencing. Enzyme Purification: Full length wild-type HIV Integrase was expressed in E. coli BL21 (DE3) cells and induced with 1 mM isopropyl-1 thio-β-D-galactopyranoside (IPTG) when cells reached an optical density between 0.8-1.0 at 600 nm. Cells were lysed by microfluidation in 50 mM HEPES pH 7.0, 75 mM NaCl, 5 mM DTT, 1 mM 4-(2-Aminoethyl)benzenesulfonylfluoride HCl (AEBSF). Lysate was then centrifuged 20 minutes at 11 k rpm in GSA rotor in Sorvall RC-5B at 4° C. Supernant was discarded and pellet resuspended in 50 mM HEPES pH 7.0, 750 mM NaCl, 5 mM DTT, 1 mM AEBSF and homogenized in a 40 mL Dounce homogenizer for 20 minutes on ice. Homogenate was then centrifuged 20 minutes at 11 k rpm in SS34 rotor in Sorvall RC-5B at 4° C. Supernant was discarded and pellet resuspended in 50 mM HEPES pH 7.0, 750 mM NaCl, 25 mM CHAPS, 5 mM DTT, 1 mM AEBSF. Preparation was then centrifuged 20 minutes at 11 k rpm in SS34 rotor in Sorvall RC-5B at 4° C. Supernant was then diluted 1:1 with 50 mM HEPES pH 7.0, 25 mM CHAPS, 1 mM DTT, 1 mM AEBSF and loaded onto a Q-Sepharose column pre-equilibrated with 50 mM HEPES, pH 7.0, 375 mM NaCl, 25 mM CHAPS, 1 mM DTT, 1 mM AEBSF. The flow through peak was collected and NaCl diluted to 0.1 M with 50 mM HEPES pH 7.0, 25 mM CHAPS, 1 mM DTT, 0.5 mM AEBSF and loaded onto a SP-Sepharose column pre-equilibrated with 50 mM HEPES pH 7.0, 100 mM NaCl, 25 mM CHAPS, 1 mM DTT, 0.5 mM AEBSF. After washing the column with the equilibration buffer, a 100 to 400 mM NaCl gradient was run. The eluted integrase was concentrated and run on a S-300 gel diffusion column using 50 mM HEPES pH 7.0, 500 mM NaCl, 25 mM CHAPS, 1 mM DTT, 0.5 mM AEBSF. The peak from this column was concentrated to 0.76 mg/mL and stored at −70° C. and later used for strand transfer assays. […]

[3] = Human immunodeficiency virus 1, CEM-SS, 144 h, HIV-1 RF, CEM-SS cells, XTT dye reduction, six days, read-out: EC50

Question: How did the pEC50 ([1]; Human immunodeficiency virus 1, CEM-SS, 144 h) turn out when `CN(O)C(=O)c1cc2c(CN3[C@H]4CC[C@@H]3C(=O)NC4)cn(Cc3ccc(F)cc3)c2cn1` [Example 34, (4-Fluorobenzyl)-N-hydroxy-N-methyl-3-{[(1R,5S)-2-oxo-3,8-diazabicyclo[3.2.1]oct-8-yl]methyl}-1H-pyrrolo[2,3-c]pyridine-5-carboxamide] was run?
Answer: The pEC50 was 6.77.

Question: And the pIC50 [2]?
Answer: The pIC50 was 6.31.

Question: `CN(O)C(=O)c1cc2cnn(Cc3ccc(F)cc3)c2cn1` [Example 36, 1-(4-Fluorobenzyl)-N-hydroxy-N-methyl-1H-pyrazolo[3,4-c]pyridine-5-carboxamide] was tested. Which pEC50 [1, 3] did it give?
Answer: The pEC50 was 6.41.

Question: And the pIC50 [2]?
Answer: Its pIC50 is 6.09.

Question: `CONC(=O)c1cc2c(CN3CCN(C)CC3)cn(Cc3ccc(F)cc3F)c2cn1` [Example 37, 1-(2,4-Difluorobenzyl)-N-methoxy-3-[(4-methylpiperazin-1-yl)methyl]-1H-pyrrolo[2,3-c]pyridine-5-carboxamide] was tested. Which pEC50 [1, 3] did it give?
Answer: The pEC50 was 7.34.

Question: And the pIC50 [2]?
Answer: The pIC50 was 6.28.

Question: `CCO/C=C/c1c(C(=O)NO)ncc2c1ccn2Cc1ccc(F)cc1` [Example 38, 4-[(E)-2-Ethoxyvinyl]-1-(4-fluorobenzyl)-N-hydroxy-1H-pyrrolo[2,3-c]pyridine-5-carboxamide] was tested. Which pEC50 [1, 3] did it give?
Answer: Its pEC50 is 7.92.

Question: And the pIC50 [2]?
Answer: The pIC50 was 6.84.

Question: `O=C(NO)c1ncc2c(ccn2Cc2ccc(F)cc2)c1O` [Example 42, 1-(4-Fluorobenzyl)-N,4-dihydroxy-1H-pyrrolo[2,3-c]pyridine-5-carboxamide] was tested. Which pEC50 [1, 3] did it give?
Answer: The pEC50 was 9.00.

Question: And the pIC50 [2]?
Answer: The pIC50 was 7.57.

Question: How did the pEC50 [1, 3] turn out when `CONC(=O)c1ncc2c(ccn2Cc2ccc(F)cc2)c1O` [Example 43, 1-(4-Fluorobenzyl)-4-hydroxy-N-methoxy-1H-pyrrolo[2,3-c]pyridine-5-carboxamide] was run?
Answer: Its pEC50 is 6.38.

Question: And the pIC50 [2]?
Answer: The pIC50 was 6.43.

Question: How did the pEC50 [1, 3] turn out when `COc1c(C(=O)N(C)O)ncc2c1ccn2Cc1ccc(F)cc1` [Example 44, 1-(4-Fluorobenzyl)-N-hydroxy-4-methoxy-N-methyl-1H-pyrrolo[2,3-c]pyridine-5-carboxamide] was run?
Answer: The pEC50 was 5.92.

Question: And the pIC50 [2]?
Answer: The pIC50 was 5.65.

Question: `CCN1CCCC1CNCc1cn(Cc2ccc(F)cc2F)c2cnc(C(=O)NO)cc12` (stereo not shown) [Example 45, 1-(2,4-Difluorobenzyl)-3-({[(1-ethylpyrrolidin-2-yl)methyl]amino}methyl)-N hydroxy-1H-pyrrolo[2,3-c]pyridine-5-carboxamide] was tested. Which pEC50 ([1]; HIV-1 RF, CEM-SS cells, XTT dye reduction, six days, read-out: EC50) did it give?
Answer: The pEC50 was 7.29.

Question: And the pIC50 [2]?
Answer: The pIC50 was 6.53.

Question: With `CCN1CCCC1CNCc1cn(Cc2ccc(F)cc2F)c2cnc(C(=O)NOC)cc12` (stereo not shown) [Example 46, 1-(2,4-Difluorobenzyl)-3-({[(1-ethylpyrrolidin-2-yl)methyl]amino}methyl)-N-methoxy-1H-pyrrolo[2,3-c]pyridine-5-carboxamide] as the molecule, how does the pEC50 [1, 3] read?
Answer: The pEC50 was 6.89.

Question: And the pIC50 [2]?
Answer: The pIC50 was 6.04.

Question: What does the source list for `CN1CCCC1CCNCc1cn(Cc2ccc(F)cc2F)c2cnc(C(=O)NO)cc12` (stereo not shown) [Example 51, 1-(2,4-Difluorobenzyl)-N-hydroxy-3-({[2-(1-methylpyrrolidin-2-yl)ethyl]amino}methyl)-1H-pyrrolo[2,3-c]pyridine-5-carboxamide]?
Answer: pEC50 [1, 3]: 6.64; pIC50 [2]: 6.12

Question: `CN1CCN(CCCNCc2cn(Cc3ccc(F)cc3F)c3cnc(C(=O)NO)cc23)CC1` [Example 52, 1-(2,4-Difluorobenzyl)-N-hydroxy-3-({[3-(4-methylpiperazin-1-yl)propyl]amino}methyl)-1H-pyrrolo[2,3-c]pyridine-5-carboxamide] was tested. Which pEC50 [1, 3] did it give?
Answer: The pEC50 was 6.59.

Question: What about the pIC50 [2] of the same molecule?
Answer: The pIC50 was 6.11.

Question: Which results are given for `CC(CO)NCc1cn(Cc2ccc(F)cc2F)c2cnc(C(=O)NO)cc12` (stereo not shown) [Example 53, 1-(2,4-Difluorobenzyl)-N-hydroxy-3-{[(2-hydroxy-1-methylethyl)amino]methyl}-1H-pyrrolo[2,3-c]pyridine-5-carboxamide]?
Answer: pEC50 [1, 3]: 7.96; pIC50 [2]: 6.44

Question: Which results are given for `O=C(NO)c1cc2c(CNCCN3CCOCC3)cn(Cc3ccc(F)cc3F)c2cn1` [Example 54]?
Answer: pEC50 [1, 3]: 7.42; pIC50 [2]: 6.13

Question: What does the source list for `O=C(NO)c1cc2c(CNCc3ccccn3)cn(Cc3ccc(F)cc3F)c2cn1` [Example 55, 1-(2,4-Difluorobenzyl)-N-hydroxy-3-{[(pyridin-2-ylmethyl)amino]methyl}-1H-pyrrolo[2,3-c]pyridine-5-carboxamide]?
Answer: pEC50 [1, 3]: 7.70; pIC50 [2]: 6.67

Question: With `O=C(NO)c1cc2c(CNCCc3ccccn3)cn(Cc3ccc(F)cc3F)c2cn1` [Example 56] as the molecule, how does the pEC50 [1, 3] read?
Answer: Its pEC50 is 7.96.

Question: What about the pIC50 [2] of the same molecule?
Answer: Its pIC50 is 6.56.

Question: With `O=C(NO)c1cc2c(CNCCN3CCCC3)cn(Cc3ccc(F)cc3F)c2cn1` [Example 57, 1-(2,4-Difluorobenzyl)-N-hydroxy-3-{[(2-pyrrolidin-1-ylethyl)amino]methyl}-1H-pyrrolo[2,3-c]pyridine-5-carboxamide] as the molecule, how does the pEC50 [1, 3] read?
Answer: Its pEC50 is 7.62.

Question: And the pIC50 [2]?
Answer: Its pIC50 is 6.27.

Question: With `O=C(NO)c1cc2c(CNCCOCCO)cn(Cc3ccc(F)cc3F)c2cn1` [Example 58, 1-(2,4-Difluorobenzyl)-N-hydroxy-3-({[2-(2-hydroxyethoxy)ethyl]amino}methyl)-1H-pyrrolo[2,3-c]pyridine-5-carboxamide] as the molecule, how does the pEC50 [1, 3] read?
Answer: Its pEC50 is 7.00.

Question: And the pIC50 [2]?
Answer: The pIC50 was 6.23.

Question: How did the pEC50 [1, 3] turn out when `O=C(NO)c1cc2c(CN[C@@H](CO)c3ccccc3)cn(Cc3ccc(F)cc3F)c2cn1` [Example 59, 1-(2,4-Difluorobenzyl)-N-hydroxy-3-({[(1R)-2-hydroxy-1-phenylethyl]amino}methyl)-1H-pyrrolo[2,3-c]pyridine-5-carboxamide] was run?
Answer: The pEC50 was 7.74.

Question: What about the pIC50 [2] of the same molecule?
Answer: The pIC50 was 6.66.

Question: What does the source list for `O=C(NO)c1cc2c(CNCC3CCCO3)cn(Cc3ccc(F)cc3F)c2cn1` (stereo not shown) [Example 60, 1-(2,4-Difluorobenzyl)-N-hydroxy-3-{[(tetrahydrofuran-2-ylmethyl)amino]methyl}-1H-pyrrolo[2,3-c]pyridine-5-carboxamide]?
Answer: pEC50 [1, 3]: 7.92; pIC50 [2]: 6.28

Question: Which results are given for `CN(C)CC(C)(C)CNCc1cn(Cc2ccc(F)cc2F)c2cnc(C(=O)NO)cc12` [Example 61, 1-(2,4-Difluorobenzyl)-3-({[3-(dimethylamino)-2,2-dimethylpropyl]amino}methyl)-N-hydroxy-1H-pyrrolo[2,3-c]pyridine-5-carboxamide]?
Answer: pEC50 [1, 3]: 7.46; pIC50 [2]: 6.04
